Experimental data reported in US12685777B2, “Compositions, systems, and methods for modulating a target gene” (The Board of Trustees of the Leland Stanford Junior …, priority 2022, dated 2026).

What was measured:
[1] = system: primary human fibroblasts; assay: Cell viability of primary human fibroblasts; assay type: cell-based; conditions: 72 hours, read-out: EC50 of killing of fibroblasts
Method: Lymphoma and leukemia cells were cultured in RPMI-1640 (ATCC 30-2001)+10% FBS with antibiotics (100× PenStrep GIBCO #15140122). Primary human fibroblasts were obtained from ATCC (#CRL2522), cultured in DMEM+10% FBS with antibiotics and used at passages 3-5. Primary human tonsillar lymphocytes were a kind gift from M. M. Davis. Cells were routinely checked for mycoplasma and immediately checked upon suspicion. No cultures tested positive.
30,000 cells were plated in 100 μL media per well of a 96 well plate and treated with drug for indicated times and doses. A resazurin-based indicator of cell health (PrestoBlue, ThermoFisher #P50200) was added for 1.5 hours after which the fluorescence ratio at 560/590 nm was recorded. The background fluorescence was subtracted and the signal was normalized to DMSO-treated cells. EC50 measurements on cell lines were done with 4 biological repeats by separate cell passages maintained by 3 independent investigators. Fit of dose-response curves to data and statistical analysis was performed using drc package in R using the four-parameter log-logistic function.
After treatment, mouse tissue was harvested for RNA-seq and histology. […] Serum concentrations after 8 hours were -100 to 400-fold higher than therapeutic doses (FIG. 37, Panel C).

BCL6 mRNA = assay: RT-qPCR of BCL6 isoforms; assay type: cell-based, human; conditions: 10 nM
Method: 12. RNA Extraction, qPCR, and Sequencing Library Preparation Cells were plated at 1 M/mL and harvested in TRIsure (Bioline #38033). RNA was extracted using Direct-zol RNA MicroPrep columns (Zymo #R^2062) treated with DNAseI. cDNA was prepared for RT-qPCR using the SensiFAST cDNA preparation kit according to manufacturer instructions (Bioline #65054). 1 μL of cDNA was used per RT-qPCR reaction prepared with SYBR Lo-ROX (Bioline #94020). For sequencing library preparation, polyA-containing transcripts were enriched for (NEB #E7490S) and prepared into paired-end libraries (NEB #E7760S). Libraries were sequenced on an Illumina NovaSeq (Novogene). 13. Western Blots
Thus, TCIPs can rewire a repressive negative feedback pathway into a positive feedback pathway, amplifying the potency of the molecule in killing cancer cells (model in FIG. 40, Panel D).

CNC(=O)COc1cc2cc(Nc3nc(N4CCC(C(=O)NCCCCCCCNC(=O)C[C@@H]5N=C(c6ccc(Cl)cc6)c6c(sc(C)c6C)-n6c(C)nnc65)CC4)ncc3Cl)cc(OC)c2n(C)c1=O [TCIP1]
EC50 [1]: ~470 nM
Time to upregulation of the long isoform of BCL6 mRNA (BCL6 mRNA): 1 to 2 h
